Where two headings read alike, the source gives them in different places.
Biological target: T1, F508delCFTR (Homo sapiens, UniProt P13569, DEL508-508)
T1 construct: expressed in transfected cells; host or cells: CFBE4lo-F508delCFTR-HRP cells (human lung derived epithelial cell line, doxycycline-inducible)
Experiment: Cell Surface Expression-Horse Radish Peroxidase (CSE-HRP) Assay
Format: cell-based
Settings: for EC50: CFBE4lo-F508delCFTR-HRP cells, 18-24 hours at 33° C.; for Emax / Maximum % activity (with co-corrector): maximum at any tested concentration (up to 20 μM), normalized to on-plate positive control (2 μM co-corrector); for Maximum % activity (with co-corrector): with co-corrector 2 μM
Outline: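 Surface F508delCFTR measured via exofacial-loop HRP luminescence (luminol) in doxycycline-induced (0.5 μg/mL, 72 h) CFBE4lo− cells. Compounds, 20 μM top, 3-fold, 8 concentrations, ±2 μM co-corrector, incubated 18-24 h at 33° C; EC50 by variable-slope sigmoidal fit of % activity relative to positive control, three replicate plates.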

[1] = test compound without co-corrector, HRP luminescence readout, read-out: EC50 (without co-corrector)
[2] = test compound without co-corrector
[3] = with co-corrector 2 μM 3-[(2R,4R)-4-({[1-(2,2-difluoro-1,3-benzodioxol-5-yl)cyclopropyl]carbonyl}amino)-7-methoxy-3,4-dihydro-2H-chromen-2-yl]benzoic acid, read-out: EC50 (with co-corrector)

T1 sequence (P13569 with tags, fused parts or gaps DEL508-508): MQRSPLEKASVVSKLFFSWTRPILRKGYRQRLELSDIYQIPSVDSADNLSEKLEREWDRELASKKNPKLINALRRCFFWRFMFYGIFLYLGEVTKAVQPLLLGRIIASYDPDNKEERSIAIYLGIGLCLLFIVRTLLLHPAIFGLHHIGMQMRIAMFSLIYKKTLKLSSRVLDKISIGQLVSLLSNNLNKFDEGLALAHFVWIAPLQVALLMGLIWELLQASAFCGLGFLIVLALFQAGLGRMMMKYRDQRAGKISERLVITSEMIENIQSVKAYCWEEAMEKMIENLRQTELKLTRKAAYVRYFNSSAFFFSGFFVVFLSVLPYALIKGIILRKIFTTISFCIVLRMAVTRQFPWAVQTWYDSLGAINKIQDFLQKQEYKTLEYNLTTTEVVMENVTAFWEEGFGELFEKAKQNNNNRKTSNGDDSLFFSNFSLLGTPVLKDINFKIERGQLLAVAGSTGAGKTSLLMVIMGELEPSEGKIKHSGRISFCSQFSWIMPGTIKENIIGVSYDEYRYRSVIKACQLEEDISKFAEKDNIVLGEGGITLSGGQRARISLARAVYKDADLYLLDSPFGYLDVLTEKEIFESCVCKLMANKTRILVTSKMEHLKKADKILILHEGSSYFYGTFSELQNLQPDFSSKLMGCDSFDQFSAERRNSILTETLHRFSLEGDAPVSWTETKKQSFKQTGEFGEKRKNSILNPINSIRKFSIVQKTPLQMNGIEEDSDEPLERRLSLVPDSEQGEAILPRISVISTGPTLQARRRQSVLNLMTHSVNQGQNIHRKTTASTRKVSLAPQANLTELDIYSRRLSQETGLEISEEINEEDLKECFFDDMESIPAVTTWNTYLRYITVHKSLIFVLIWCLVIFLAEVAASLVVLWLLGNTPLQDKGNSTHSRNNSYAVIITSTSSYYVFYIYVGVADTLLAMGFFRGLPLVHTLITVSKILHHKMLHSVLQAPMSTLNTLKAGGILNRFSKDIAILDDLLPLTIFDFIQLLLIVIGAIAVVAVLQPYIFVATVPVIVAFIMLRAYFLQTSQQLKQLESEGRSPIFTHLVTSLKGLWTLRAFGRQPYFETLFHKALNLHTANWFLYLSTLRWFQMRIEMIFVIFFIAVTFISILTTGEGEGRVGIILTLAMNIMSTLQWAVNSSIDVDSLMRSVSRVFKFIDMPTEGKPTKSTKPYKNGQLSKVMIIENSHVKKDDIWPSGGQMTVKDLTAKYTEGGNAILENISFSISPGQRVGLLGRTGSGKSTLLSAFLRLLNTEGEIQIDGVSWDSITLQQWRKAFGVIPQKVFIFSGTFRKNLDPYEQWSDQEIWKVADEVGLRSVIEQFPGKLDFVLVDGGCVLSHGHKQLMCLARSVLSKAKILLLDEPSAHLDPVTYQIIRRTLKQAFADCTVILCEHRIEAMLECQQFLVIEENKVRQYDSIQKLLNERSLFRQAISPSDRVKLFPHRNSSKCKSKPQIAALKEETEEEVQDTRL

Structure (SMILES) | EC50 [1] | Emax [2] | EC50 [3] | Maximum % activity (with co-corrector)
COc1ccc(Cl)c2c1C(C(=O)NS(=O)(=O)c1cccc3ccccc13)CC(C)(C)O2 (centres unmarked) [Example 51, 8-chloro-5-methoxy-2,2-dimethyl-N-(naphthalene-1-sulfonyl)-3,4-dihydro-2H-1-benzopyran-4-carboxamide] | < 3 µM | ≥ 150% | < 3 µM | +++ (≥350)
COc1ccc(Br)c2c1OCC2C(=O)NS(=O)(=O)c1cccc2ccccc12 (centres unmarked) [Example 37, 4-bromo-7-methoxy-N-(naphthalene-1-sulfonyl)-2,3-dihydro-1-benzofuran-3-carboxamide] | 3 to 10 µM | ≥ 150% | < 3 µM | +++ (≥350)
COc1ccc(Br)c2c1C(C(=O)NS(=O)(=O)c1cccc3ccccc13)CO2 (centres unmarked) [Example 39, 7-bromo-4-methoxy-N-(naphthalene-1-sulfonyl)-2,3-dihydro-1-benzofuran-3-carboxamide] | < 3 µM | ≥ 150% | < 3 µM | +++ (≥350)
COc1ccc(C2CCC2)c2c1C(C(=O)NS(=O)(=O)c1cccc3ccccc13)OCC2 (centres unmarked) [Example 79, 5-cyclobutyl-8-methoxy-N-(naphthalene-1-sulfonyl)-3,4-dihydro-1H-2-benzopyran-1-carboxamide] | 3 to 10 µM | ≥ 150% | < 3 µM | +++ (≥350)
O=C(NS(=O)(=O)c1cccc2ccccc12)C1(c2ccccc2)COc2ccccc21 (centres unmarked) [Example 6, N-(naphthalene-1-sulfonyl)-3-phenyl-2,3-dihydro-1-benzofuran-3-carboxamide] | < 3 µM | 50 to 150% | < 3 µM | +++ (≥350)
COc1cccc2c1OCC2C(=O)NS(=O)(=O)c1cccc2ccccc12 (centres unmarked) [Example 25, 7-methoxy-N-(naphthalene-1-sulfonyl)-2,3-dihydro-1-benzofuran-3-carboxamide] | 3 to 10 µM | < 50% | 3 to 10 µM | ++ (≥150 and <350)
COc1ccc(C2CCC2)c2c1[C@@H](C(=O)NS(=O)(=O)c1cccc3[nH]ccc13)CCO2 [Example 103, (4S)-8-cyclobutyl-N-(1H-indole-4-sulfonyl)-5-methoxy-3,4-dihydro-2H-1-benzopyran-4-carboxamide] | 3 to 10 µM | ≥ 150% | < 3 µM | +++ (≥350)
COc1ccc(C2CCC2)c2c1[C@H](C(=O)NS(=O)(=O)c1cccc3nc(C)ccc13)CCO2 [Example 77, (4R)-8-cyclobutyl-5-methoxy-N-(2-methylquinoline-5-sulfonyl)-3,4-dihydro-2H-1-benzopyran-4-carboxamide] | 3 to 10 µM | ≥ 150% | < 3 µM | +++ (≥350)
COc1ccc(Br)c2c1[C@H](C(=O)NS(=O)(=O)c1cccc3ccccc13)CO2 (single isomer, unassigned) [Example 74] | < 3 µM | ≥ 150% | < 3 µM | +++ (≥350)
COc1ccc(C#N)c2c1C(C(=O)NS(=O)(=O)c1cccc3ccccc13)CC(C)(C)O2 (centres unmarked) [Example 50, 8-cyano-5-methoxy-2,2-dimethyl-N-(naphthalene-1-sulfonyl)-3,4-dihydro-2H-1-benzopyran-4-carboxamide] | 3 to 10 µM | 50 to 150% | < 3 µM | +++ (≥350)
COc1cccc2c1C(C(=O)NS(=O)(=O)c1cccc3cccnc13)CC(C)(C)O2 (centres unmarked) [Example 47, 5-methoxy-2,2-dimethyl-N-(quinoline-8-sulfonyl)-3,4-dihydro-2H-1-benzopyran-4-carboxamide] | 3 to 10 µM | < 50% | 3 to 10 µM | ++ (≥150 and <350)
COc1ccc(C2CCC2)c2c1[C@H](C(=O)NS(=O)(=O)c1cccc3ncccc13)CC(C)(C)O2 [Example 86, (4R)-8-cyclobutyl-5-methoxy-2,2-dimethyl-N-(quinoline-5-sulfonyl)-3,4-dihydro-2H-1-benzopyran-4-carboxamide] | < 3 µM | ≥ 150% | < 3 µM | +++ (≥350)
COc1ccc(C2CCC2)c2c1[C@@H](C(=O)NS(=O)(=O)c1cccc3c1CCCN3)CO2 [Example 100, (3R)-7-cyclobutyl-4-methoxy-N-(1,2,3,4-tetrahydroquinoline-5-sulfonyl)-2,3-dihydro-1-benzofuran-3-carboxamide] | 3 to 10 µM | 50 to 150% | 3 to 10 µM | +++ (≥350)
COc1ccc(Br)c2c1[C@@H](C(=O)NS(=O)(=O)c1cccc3ncccc13)CC(C)(C)O2 [Example 71, (4S)-8-bromo-5-methoxy-2,2-dimethyl-N-(quinoline-5-sulfonyl)-3,4-dihydro-2H-1-benzopyran-4-carboxamide] | 3 to 10 µM | ≥ 150% | < 3 µM | +++ (≥350)
Cc1ccccc1S(=O)(=O)NC(=O)C1CCOc2ccccc21 (centres unmarked) [Example 30, N-(2-methylbenzene-1-sulfonyl)-3,4-dihydro-2H-1-benzopyran-4-carboxamide] | ≥ 10 µM | < 50% | 3 to 10 µM | + (<150)
O=C(NS(=O)(=O)c1cccc2ccccc12)C1(c2ccccc2)C[C@@H](CN2CCCC2)Oc2ccccc21 (stereo partly drawn) [Example 31, (2S)—N-(naphthalene-1-sulfonyl)-4-phenyl-2-[(pyrrolidin-1-yl)methyl]-3,4-dihydro-2H-1-benzopyran-4-carboxamide] | ≥ 10 µM | < 50% | 3 to 10 µM | ++ (≥150 and <350)
CC(C)c1ccc(S(=O)(=O)NC(=O)C2(C)Cc3ccccc3O2)cc1 (centres unmarked) [Example 26, 2-methyl-N-[4-(propan-2-yl)benzene-1-sulfonyl]-2,3-dihydro-1-benzofuran-2-carboxamide] | ≥ 10 µM | < 50% | ≥ 10 µM | + (<150)
Cc1ccccc1S(=O)(=O)NC(=O)C1COc2ccccc21 (centres unmarked) [Example 29, N-(2-methylbenzene-1-sulfonyl)-2,3-dihydro-1-benzofuran-3-carboxamide] | ≥ 10 µM | < 50% | ≥ 10 µM | + (<150)
COc1ccc(C2CCC2)c2c1OCC[C@H]2C(=O)NS(=O)(=O)c1cccc2ncccc12 (single isomer, unassigned) [Example 106] | < 3 µM | ≥ 150% | < 3 µM | +++ (≥350)
COc1ccc(C2CCC2)c2c1[C@H](C(=O)NS(=O)(=O)c1cccc3c1CCCN3)CC(C)(C)O2 (single isomer, unassigned) [Example 97] | < 3 µM | ≥ 150% | < 3 µM | +++ (≥350)
CCC1(C(=O)NS(=O)(=O)c2cccc3ccccc23)COc2c(Cl)cccc21 (centres unmarked) [Example 44, 7-chloro-3-ethyl-N-(naphthalene-1-sulfonyl)-2,3-dihydro-1-benzofuran-3-carboxamide] | 3 to 10 µM | 50 to 150% | 3 to 10 µM | +++ (≥350)
COc1ccc(C2CCC2)c2c1C(C(=O)NS(=O)(=O)c1cccc3ncccc13)CCO2 (centres unmarked) [Example 54, 8-cyclobutyl-5-methoxy-N-(quinoline-5-sulfonyl)-3,4-dihydro-2H-1-benzopyran-4-carboxamide] | 3 to 10 µM | ≥ 150% | < 3 µM | +++ (≥350)
C[C@]1(C(=O)NS(=O)(=O)c2cccc3ccccc23)COc2cc3c(cc21)OC(F)(F)O3 [Example 33, (7R)-2,2-difluoro-7-methyl-N-(naphthalene-1-sulfonyl)-6,7-dihydro-2H-furo[2,3-f][1,3]benzodioxole-7-carboxamide] | ≥ 10 µM | < 50% | ≥ 10 µM | ++ (≥150 and <350)
COc1ccc(C(F)(F)F)c2c1C(C(=O)NS(=O)(=O)c1cccc3ccccc13)CCO2 (centres unmarked) [Example 53, 5-methoxy-N-(naphthalene-1-sulfonyl)-8-(trifluoromethyl)-3,4-dihydro-2H-1-benzopyran-4-carboxamide] | < 3 µM | ≥ 150% | < 3 µM | +++ (≥350)
COc1ccc(C(F)(F)F)c2c1[C@H](C(=O)NS(=O)(=O)c1cccc3ccccc13)CCO2 [Example 58, (4R)-5-methoxy-N-(naphthalene-1-sulfonyl)-8-(trifluoromethyl)-3,4-dihydro-2H-1-benzopyran-4-carboxamide] | < 3 µM | ≥ 150% | < 3 µM | +++ (≥350)
CCC1(C(=O)NS(=O)(=O)c2cccc3ccccc23)COc2c(Br)cccc21 (centres unmarked) [Example 22, 7-bromo-3-ethyl-N-(naphthalene-1-sulfonyl)-2,3-dihydro-1-benzofuran-3-carboxamide] | 3 to 10 µM | ≥ 150% | 3 to 10 µM | +++ (≥350)

From patent publication US10428017B2, “Modulators of the cystic fibrosis transmembrane conductance regulator protein and methods of use” (AbbVie S.à.r.l., priority 2017, dated 2019)
